For the experiment, the target named is Adenosine A2A receptor (Homo sapiens, UniProt P29274). Put plainly: cAMP assay in 293A cells stably expressing the adenosine A2A receptor (CGS21680 stimulation, HTRF). Conditions: 293A-A2AR cells, 0.1% BSA, 1 uM CGS; read-out: cAMP (nM) 0.1% BSA, 1 uM CGS. In kind it is cell-based. Further details: expressed in transfected cells; host or cells: 293A cells (Invitrogen, Cat# R705-07) infected with A2A-expressing lentivirus (custom packaged by Biosettia), puromycin selected. Background: Changes in cAMP serve as a functional read-out for many G protein-coupled receptors.

Each structure is given as a SMILES string. Where “and” joins values, the source holds several entries; their conditions need not be identical. Equal entries are not always repeated.

From US20210355104A1, “ADENOSINE RECEPTOR BINDING COMPOUNDS” (Nikang Therapeuticsm Inc., priority 2018, published 2021) come the findings set out here.

Adenosine A2A receptor, sequence (P29274 whole entry): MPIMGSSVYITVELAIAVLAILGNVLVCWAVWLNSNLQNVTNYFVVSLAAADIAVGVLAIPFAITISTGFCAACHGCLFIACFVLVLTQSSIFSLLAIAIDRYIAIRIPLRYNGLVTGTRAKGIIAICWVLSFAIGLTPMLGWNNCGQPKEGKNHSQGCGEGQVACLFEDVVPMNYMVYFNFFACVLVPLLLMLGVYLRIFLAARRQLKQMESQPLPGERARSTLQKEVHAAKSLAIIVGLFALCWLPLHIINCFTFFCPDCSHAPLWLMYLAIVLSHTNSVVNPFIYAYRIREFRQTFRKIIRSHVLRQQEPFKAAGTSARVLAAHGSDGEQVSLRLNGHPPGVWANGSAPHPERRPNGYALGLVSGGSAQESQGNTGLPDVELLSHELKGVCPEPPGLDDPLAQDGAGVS

Take `Cc1cc(-c2c(OCc3nc4n(n3)CCCC4)nc(N)nc2-c2ccc(F)cc2)cc(C(F)F)n1` [Example 352, 5-(2-(difluoromethyl)-6-methylpyridin-4-yl)-4-(4-fluorophenyl)-6-((5,6,7,8-tetrahydro-[1,2,4]triazolo[1,5-a]pyridin-2-yl)methoxy)pyrimidin-2-amine]: the IC50 is 1790 nM.
For `Cc1cc(-c2c(NCc3cccc(C(C)(C)C#N)n3)nc(N)nc2-c2ccc(F)cc2)cc(C(F)F)n1` [Example 356, 2-(6-(((2-amino-5-(2-(difluoromethyl)-6-methylpyridin-4-yl)-6-(4-fluorophenyl)pyrimidin-4-yl)amino)methyl)pyridin-2-yl)-2-methylpropanenitrile], the IC50 was determined as 1420 nM.
To `Cc1cc(-c2c(OCc3nc4cc(C(C)(C)O)ccc4n3C)nc(N)nc2-c2ccc(F)cc2)cc(C(F)F)n1` [Example 357, 2-(2-(((2-amino-5-(2-(difluoromethyl)-6-methylpyridin-4-yl)-6-(4-fluorophenyl)pyrimidin-4-yl)oxy)methyl)-1-methyl-1H-benzo[d]imidazol-5-yl)propan-2-ol] belongs 3910 nM and 3930 nM.
For the compound `Cc1cc(-c2c(OCc3nc4ccc(C(C)(C)O)cc4n3C)nc(N)nc2-c2ccc(F)cc2)cc(C(F)F)n1` [Example 358, 2-(2-(((2-amino-5-(2-(difluoromethyl)-6-methylpyridin-4-yl)-6-(4-fluorophenyl)pyrimidin-4-yl)oxy)methyl)-1-methyl-1H-benzo[d]imidazol-6-yl)propan-2-ol], the IC50 is 940 nM and 1060 nM.
To `Cc1cc(-c2c(OCc3nc4c(C(C)(C)C(=O)O)cccc4n3C)nc(N)nc2-c2ccc(F)cc2)cc(C(F)F)n1` [Example 359, 2-(2-(((2-amino-5-(2-(difluoromethyl)-6-methylpyridin-4-yl)-6-(4-fluorophenyl)pyrimidin-4-yl)oxy)methyl)-1-methyl-1H-benzo[d]imidazol-4-yl)-2-methylpropanoic acid] belongs 9470 nM and 8890 nM; to `CCC(C)(C#N)c1cccc(COc2nc(N)nc(-c3ccc(F)cc3)c2-c2cc(C)nc(C(F)F)c2)n1` (centres unmarked) [Example 360, 2-(6-(((2-amino-5-(2-(difluoromethyl)-6-methylpyridin-4-yl)-6-(4-fluorophenyl)pyrimidin-4-yl)oxy)methyl)pyridin-2-yl)-2-methylbutanenitrile], 50 nM and 51 nM and 115 nM.
Regarding `Cc1cc(-c2c(OCc3nc4c(C(C)(C)O)cccc4n3C)nc(N)nc2-c2ccc(F)cc2)cc(C(F)F)n1` [Example 361, 2-(2-(((2-amino-5-(2-(difluoromethyl)-6-methylpyridin-4-yl)-6-(4-fluorophenyl)pyrimidin-4-yl)oxy)methyl)-1-methyl-1H-benzo[d]imidazol-4-yl)propan-2-ol], the IC50 is 854 nM and 1110 nM.
As for `Cc1cc(-c2c(OCCc3cccc(C(C)(C)C#N)n3)nc(N)nc2-c2ccc(F)cc2)cc(C(F)F)n1` [Example 362, 2-(6-(2-((2-amino-5-(2-(difluoromethyl)-6-methylpyridin-4-yl)-6-(4-fluorophenyl)pyrimidin-4-yl)oxy)ethyl)pyridin-2-yl)-2-methylpropanenitrile], the IC50 was 85 nM and 158 nM and 45 nM.
`Cc1cc(-c2c(OCc3cccc(C(C)(C)C(=O)O)c3)nc(N)nc2-c2ccc(F)cc2)cc(C(F)F)n1` [Example 363, 2-(3-(((2-amino-5-(2-(difluoromethyl)-6-methylpyridin-4-yl)-6-(4-fluorophenyl)pyrimidin-4-yl)oxy)methyl)phenyl)-2-methylpropanoic acid]: the IC50 turned out to be 4800 nM.
As for `Cc1cc(-c2c(OCc3ccccn3)nc(NCC(=O)O)nc2-c2ccc(F)cc2)cc(C(F)F)n1` [Example 364, (5-(2-(difluoromethyl)-6-methylpyridin-4-yl)-4-(4-fluorophenyl)-6-(pyridin-2-ylmethoxy)pyrimidin-2-yl)glycine], the IC50 was above 25000 nM.
For `CCn1c(COc2nc(N)nc(-c3ccc(F)cc3)c2-c2cc(C)nc(C(F)F)c2)nc2ccc(C(C)(C)C(=O)O)nc21` [Example 365, 2-(2-(((2-amino-5-(2-(difluoromethyl)-6-methylpyridin-4-yl)-6-(4-fluorophenyl)pyrimidin-4-yl)oxy)methyl)-3-ethyl-3H-imidazo[4,5-b]pyridin-5-yl)-2-methylpropanoic acid] the value was above 25000 nM.
To `Cc1cc(-c2c(OCc3nc(C(C)(C)O)cs3)nc(N)nc2-c2ccc(F)cc2)cc(C(F)F)n1` [Example 366, 2-(2-(((2-amino-5-(2-(difluoromethyl)-6-methylpyridin-4-yl)-6-(4-fluorophenyl)pyrimidin-4-yl)oxy)methyl)thiazol-4-yl)propan-2-ol] belongs 1690 nM.
For `Cc1cc(-c2c(OCc3ccc(F)c(C(C)(C)C(=O)O)c3)nc(N)nc2-c2ccc(F)cc2)cc(C(F)F)n1` [Example 367, 2-(5-(((2-amino-5-(2-(difluoromethyl)-6-methylpyridin-4-yl)-6-(4-fluorophenyl)pyrimidin-4-yl)oxy)methyl)-2-fluorophenyl)-2-methylpropanoic acid] the value was 11800 nM; for `Cc1cc(-c2c(OCc3nc4ccc(C(C)(C)C(=O)O)cc4n3C)nc(N)nc2-c2ccc(F)cc2)cc(C(F)F)n1` [Example 368, 2-(2-(((2-amino-5-(2-(difluoromethyl)-6-methylpyridin-4-yl)-6-(4-fluorophenyl)pyrimidin-4-yl)oxy)methyl)-1-methyl-1H-benzo[d]imidazol-6-yl)-2-methylpropanoic acid], above 25000 nM; for `Cc1cc(-c2c(OCc3nc4cc(C(C)(C)C(=O)O)ccc4n3C)nc(N)nc2-c2ccc(F)cc2)cc(C(F)F)n1` [Example 369, 2-(2-(((2-amino-5-(2-(difluoromethyl)-6-methylpyridin-4-yl)-6-(4-fluorophenyl)pyrimidin-4-yl)oxy)methyl)-1-methyl-1H-benzo[d]imidazol-5-yl)-2-methylpropanoic acid], above 25000 nM.
With `Cc1cc(-c2c(OCc3cccc(C(C)(C)C(=O)O)c3F)nc(N)nc2-c2ccc(F)cc2)cc(C(F)F)n1` [Example 370, 2-(3-(((2-amino-5-(2-(difluoromethyl)-6-methylpyridin-4-yl)-6-(4-fluorophenyl)pyrimidin-4-yl)oxy)methyl)-2-fluorophenyl)-2-methylpropanoic acid], the IC50 was 5430 nM.
With `Cc1cc(-c2c(OCc3ncc(C(C)(C)O)s3)nc(N)nc2-c2ccc(F)cc2)cc(C(F)F)n1` [Example 371, 2-(2-(((2-amino-5-(2-(difluoromethyl)-6-methylpyridin-4-yl)-6-(4-fluorophenyl)pyrimidin-4-yl)oxy)methyl)thiazol-5-yl)propan-2-ol], the IC50 worked out at 2360 nM.
For `Cc1cc(-c2c(OCCN(C)c3nccc(C(C)(C)C#N)n3)nc(N)nc2-c2ccc(F)cc2)cc(C(F)F)n1` [Example 372, 2-(2-((2-((2-amino-5-(2-(difluoromethyl)-6-methylpyridin-4-yl)-6-(4-fluorophenyl)pyrimidin-4-yl)oxy)ethyl)(methyl)amino)pyrimidin-4-yl)-2-methylpropanenitrile] the value was 128 nM and 130 nM and 160 nM.
`Cc1cc(-c2c(OCc3nc4nc(C(C)(C)C(=O)O)ccc4n3C)nc(N)nc2-c2ccc(F)cc2)cc(C(F)F)n1` [Example 374, 2-(2-(((2-amino-5-(2-(difluoromethyl)-6-methylpyridin-4-yl)-6-(4-fluorophenyl)pyrimidin-4-yl)oxy)methyl)-1-methyl-1H-imidazo[4,5-b]pyridin-5-yl)-2-methylpropanoic acid]: the IC50 was above 25000 nM.
Regarding `Cc1cc(-c2c(OCc3ccc(F)c(C(C)(C)C(=O)O)n3)nc(N)nc2-c2ccc(F)cc2)cc(C(F)F)n1` [Example 375, 2-(6-(((2-amino-5-(2-(difluoromethyl)-6-methylpyridin-4-yl)-6-(4-fluorophenyl)pyrimidin-4-yl)oxy)methyl)-3-fluoropyridin-2-yl)-2-methylpropanoic acid], the IC50 was 17600 nM and 23300 nM.
For `Cc1cc(-c2c(OCc3cccc(N)n3)nc(N)nc2-c2ccc(F)cc2)cc(C(F)F)n1` [Example 376] the value was 133 nM and 209 nM and 375 nM and 142 nM and 48 nM; for `Cc1cc(-c2c(OCc3ccc(C)c(C(C)(C)C(=O)O)n3)nc(N)nc2-c2ccc(F)cc2)cc(C(F)F)n1` [Example 377, 2-(6-(((2-amino-5-(2-(difluoromethyl)-6-methylpyridin-4-yl)-6-(4-fluorophenyl)pyrimidin-4-yl)oxy)methyl)-3-methylpyridin-2-yl)-2-methylpropanoic acid], 21100 nM; for `Cc1cc(-c2c(OCc3ncc(C(C)(C)O)n3C)nc(N)nc2-c2ccc(F)cc2)cc(C(F)F)n1` [Example 378, 2-(2-(((2-amino-5-(2-(difluoromethyl)-6-methylpyridin-4-yl)-6-(4-fluorophenyl)pyrimidin-4-yl)oxy)methyl)-1-methyl-1H-imidazol-5-yl)propan-2-ol], 430 nM and 173 nM and 247 nM.
Take `Cc1cc(-c2c(OCc3ccc4ccccc4n3)nc(N)nc2-c2ccc(F)cc2)cc(C(F)F)n1` [Example 380, 5-(2-(difluoromethyl)-6-methylpyridin-4-yl)-4-(4-fluorophenyl)-6-(quinolin-2-ylmethoxy)pyrimidin-2-amine]: the IC50 is 548 nM and 469 nM and 502 nM.
For `Cc1cc(-c2c(OCc3cc4ccccc4cn3)nc(N)nc2-c2ccc(F)cc2)cc(C(F)F)n1` [Example 382, 5-(2-(difluoromethyl)-6-methylpyridin-4-yl)-4-(4-fluorophenyl)-6-(isoquinolin-3-ylmethoxy)pyrimidin-2-amine], the IC50 worked out at 955 nM.
As for `Cc1cc(-c2c(OCc3cccc(C(C)(C)N)n3)nc(N)nc2-c2ccc(F)cc2)cc(C(F)F)n1` [Example 383, 4-((6-(2-aminopropan-2-yl)pyridin-2-yl)methoxy)-5-(2-(difluoromethyl)-6-methylpyridin-4-yl)-6-(4-fluorophenyl)pyrimidin-2-amine], the IC50 turned out to be 1010 nM.
